Marks after values point to notes of the source that are not given here.
What was measured:
[1] = system: picrotoxin-induced convulsions; experiment: Picrotoxin-induced convulsions test in mice; format: in vivo, male albino Swiss (Charles River) mice
Method: (§1) The doses of cardiazol, strychinine, bicuculline and picrotoxin (100 mg/10 ml/kg i.p., 0.73 mg/10 ml/kg s.c., 2.38 mg/10 ml/kg s.c. and 4.42 mg/10 ml/kg s.c. respectively) were chosen in such a way as to provoke death of 50% of the control animals.
(§2) The tests were carried out in male albino Swiss (Charles River) mice weighing 22-24 g which had been kept fasting for 18 hours.
(§3) 100/0 gum arabic suspensions of the compounds under examination were orally administered 60 minutes before the convulsant agent administration.
(§4) As reference substance, 3-APS (200-400-800 mg/10 ml/kg i.p.) was used.

[2] = system: bicuculline-induced convulsions; experiment: Bicuculline-induced convulsions test in mice; format: in vivo, male albino Swiss (Charles River) mice
Method: as §1, §2, §3, §4

[3] = system: strychnine-induced convulsions; experiment: Strychnine-induced convulsions test in mice; format: in vivo, male albino Swiss (Charles River) mice
Method: as §1, §2, §3, §4

[4] = system: cardiazol-induced convulsions; experiment: Cardiazol-induced convulsions test in mice; format: in vivo, male albino Swiss (Charles River) mice
Method: as §1, §2, §3, §4

[5] = system: Sodium penicillin G-induced epilepsy; experiment: Sodium penicillin G-induced epilepsy (EEG); format: in vivo, Male albino Wistar rats; conditions: rats
Text: In this regard, see: Holmes, O. arid Lockton, J.W.: "Locally generated interictal epilectic spikes in the cortex cerebri of the rat". J.Physiol. (Lond.), 308 (1980) 75-76 P. Lokcton, J.W. and Holmes, O: "Site of penicillin-induced epilepsy in the cortex cerebri of the rat'. Brain research, 190 (1980) 301-304. Reichental, E. and Hocherman, S. : "The critical cortical area for development of penicillin-induced epilepsy". Electroenceph. Clin. Neurophysiol., 42 (1977) 248-251).
Male albino Wistar rats weighing 260-280 g were used in this test. Epilepsy was induced in these rats through the application of 5 mg of sodium penicillin G, power (Carlo Erba) on the left cortex cerebri. EEG recording (electroencephalograph OTE-Biomedica PF 14e) was carried out with cortical electrodes. Following a 15 minute recording period (basal), the animals were orally administered 250 mg/10 ml/kg of ST 505 suspended in 10% gum arabic. The controls were administered 10 ml/kg of 10% gum arabic.
The following parameters were taken into account: • a) numper of peaks of the EEG tracing in subsequent 15 minu te intervals, in an overall 5-hour recording period; and • b) number of fits with attendant average duration for each interval.
With regard to parameter a), the area under the curve was calculated wherein the number of peaks at different times and its accumulation function were plotted versus the observation time, thus obtaining five descriptive parameters: one which gives the measure (area) of the totale amount of epilepsy and four (shape indexes) describing the trends of the peaks during the time interval (five hours) under examination. These shape indexes were the percentile values at 50%, 60%, 70% and 800/0 of the accumulation function of the area versus time and represented, therefore, for each rat, a measure of the distribution of the epileptic fits in time.
The fits were studied with the same model as that utilized for the peaks.

FeCl3-induced epilepsy = FeCl3-induced epilepsy model (EEG); format: in vivo, Male albino Wistar rats; conditions: 500 mg/kg oral 45 minutes following FeCl3 injection; Mann-Whitney's U test, P<0.05
Method: Male albino Wistar rats weighing 250-300g were used. The animals, anaesthetized with Nembutal Na (30 mg/kg i.p.), were stereotactically injected in their left ventral hippocampus one microliter of 0.55 M FeCl3 solution (AP=-3.2; L=5.0.; H=5.5 Pelhgrino and Cushman, 1971). Ten minutes following injection, recording electrodes were implanted: in both ventral hippocampi, two millimiters below the FeCl3 injection site (bipolars), bilaterally on the frontoparietal cortex (monopolars). recording of cerebral bioelectric activity, carried out with an EEG OTE-Biomedica PF 14e recorder, began about one hour following FeCl3 injection and lasted more than three hours on end.The epilepsy degree was assessed by calculating for each animal the number and duration in seconds of the seizures at 15-minute intervals during the whole recording span both in the hyppocampus where the injection had been performed and in the contralateral cortex. Moreover, an "index of epileptization" was calculated as the mean product of seizure number times the duration of the seizures in each time interval. […]
The results thus obtained show the antiepileptic activity of the compound assessed by examining the whole phenomenon as it evolves in time via the measure (carried out with the trapezoidal rule) of the area under the curve wherein the average number of seizures and their duration is plotted versus time.

auricular electroshock = experiment: Auricular electroshock (maximal electroshock death); format: in vivo, Male albino Swiss mice; conditions: oral in gum arabic 60 minutes before the electroshock, 10 mice
Method: Male albino Swiss mice weighing 22-24 g were used in this test. The electroshock conditions were the shock duration: 3 seconds; frequence: 100; pulse amplitude: 0.6 milliseconds, current intensity: 40 milliamperes. The compounds ST 505 and ST 512 suspended in gum arabic were orally administered 60 minutes before the electroshock.
The tests results which illustrate the number of animal preserved from death provoked by maximal electroshock are shown in the following Table 4.

male albino Swiss mice = experiment: Tolerability test, oral; format: in vivo; conditions: suspension in 10% gum arabic, dose of 3 g/kg, mice fasting for 18 hours
Method: The tolerability test was carried out on male albino Swiss mice weighing 22-24 g. The animals, which had been kept fasting for 18 hours, were orally administered a suspension in 10% gum arabic of the compounds ST 505 and ST 512.

[6] = system: cardiazol-induced convulsions; experiment: Cardiazol-induced convulsions test in rats; format: in vivo, male albino Wistar rats; conditions: oral, 60 minutes before cardiazole 70 mg/10ml/kg i.p.
Method: The compound was also orally administered to male albino Wistar rats weighing 170-200 g (see table 3), at the dose equimolar to 100 mg 3-APS 60 minutes before cardiazole administration (70 mg/10ml/kg i.p.).

[7] = 400 mg/10 ml/kg i.p., mice, versus control
[8] = 200, 400 and 800 mg/10 ml/kg i.p., mice
[9] = oral, 100 mg/kg eq. 3 APS, 60 minutes before convulsant, mice (Table 3)
[10] = oral, 200 mg/kg eq. 3-APS, versus control
[11] = oral, 200 mg/kg eq. 3 APS, 60 minutes before convulsant, mice (Table 3)
[12] = oral, 100 mg/kg eq. 3-APS, versus control
[13] = oral, 100 mg/kg eq. 3 APS, 60 minutes before convulsant, mice (Table 2)
[14] = oral, 200 mg/kg eq. 3 APS, 60 minutes before convulsant, mice (Table 2)

## NCCCS(=O)(=O)O [3-APS, 3-aminopropanesulfonic acid]
[1]; 200 mg/kg i.p., mice
  Picrotoxin % Death rate: 20%
  Picrotoxin Strong % Conv.: 100%
[1]; [7]
  picrotoxin-induced first convulsion latency time: significantly increased
[1]; 400 mg/kg i.p., mice
  Picrotoxin % Death rate: 30%
  Picrotoxin Strong % Conv.: 100%
[1]; 800 mg/kg i.p., mice
  Picrotoxin % Death rate: 70%
  Picrotoxin Strong % Conv.: 30%
[1]; [8]
  picrotoxin-induced death: did not preserve animals
[2]; 200 mg/kg i.p., mice
  Bicuculline % Death rate: 100%
  Bicuculline Strong % Conv.: 100%
[2]; [7]
  latency time of bicuculline-induced death: significantly increased
[2]; 400 mg/kg i.p., mice
  Bicuculline % Death rate: 75%
[2]; 400 mg/kg i.p., mice, 8 animals per group
  Bicuculline Strong % Conv.: 100* %
[2]; 800 mg/kg i.p., mice
  Bicuculline % Death rate: 40%
  Bicuculline Strong % Conv.: 70%
[2]; 800 mg/kg i.p., mice, versus control
  bicuculline-induced first convulsion latency time: significantly increased
[2]; [8]
  bicuculline-induced death: did not preserve animals
[3]; 200 mg/kg i.p., mice
  Strychnine % Death rate: 90%
  Strychnine Strong % Conv.: 100%
[3]; 400 mg/kg i.p., mice
  Strychnine % Death rate: 100%
  Strychnine Strong % Conv.: 100%
[3]; 800 mg/kg i.p., mice
  Strychnine % Death rate: 90%
  Strychnine Strong % Conv.: 100%
[3]; [8]
  strychnine-induced death: did not preserve animals
[4]; 200 mg/kg i.p., mice
  Cardiazol % Death rate: 50%
  Cardiazol Strong % Conv.: 100%
[4]; 400 mg/kg i.p., mice
  Cardiazol % Death rate: 90%
  Cardiazol Strong % Conv.: 100%
[4]; 800 mg/kg i.p., mice
  Cardiazol % Death rate: 60%
  Cardiazol Strong % Conv.: 100%
[4]; [8]
  cardiazol-induced death: did not preserve animals

## NS(=O)(=O)CCCN=C(c1ccc(Cl)cc1)c1cc(F)ccc1O [ST 505, 3-[[a-(p-chlorophenyl)-5-fluoro-2-hydroxybenzylidene]amino]propanesulfonamide]
[1]; oral, 100 mg/kg eq. 3-APS
  picrotoxin response: did not change
[1]; [9]
  Picrotoxin % Death rate: 90%
  Picrotoxin Strong % Conv.: 100%
[1]; [10]
  latency time of picrotoxin-induced first convulsion: increased
[1]; [11]
  Picrotoxin % Death rate: 90%
  Picrotoxin Strong % Conv.: 100%
[2]; oral, 100 mg/kg eq. 3-APS
  reduction of bicuculline-induced death rate: 20%
[2]; [12]
  latency time of the bicuculline-induced death: significantly increased
  latency time of the bicuculline-induced first convulsion: significantly increased
[2]; [9]
  Bicuculline % Death rate: 80%
  Bicuculline Strong % Conv.: 100%
[2]; [10]
  latency time of bicuculline-induced death: increased
  latency time of bicuculline-induced first convulsion: increased
[2]; [11]
  Bicuculline % Death rate: 80%
  Bicuculline Strong % Conv.: 100%
[5]; 250 mg/10 ml/kg oral, versus controls, Mann Whitney's U test
  area of the peaks: significantly decreased
[5]; MEAN (S.E.), 250 mg/kg oral, 5-hour EEG recording
  Peak area: 52.9 (5.87)**
[5]; MEAN (S.E.), 250 mg/kg oral, percentile 50% of accumulation function
  Ist shape index: 8.5 (1.0)**
[5]; MEAN (S.E.), 250 mg/kg oral, percentile 60% of accumulation function
  2nd shape index: 9.8 (1.2)
[5]; MEAN (S.E.), 250 mg/kg oral, percentile 70% of accumulation function
  3rd shape index: 11.8 (1.4)
[5]; MEAN (S.E.), 250 mg/kg oral, percentile 80% of accumulation function
  4th shape index: 13.8 (1.4)
FeCl3-induced epilepsy
  area under the curve of average number of seizures and their duration versus time, compared with controls: statistically significant difference
[3]; oral, 100 mg/kg eq. 3-APS
  reduction of strychnine-induced death rate: 20%
[3]; [9]
  Strychnine % Death rate: 30%
  Strychnine Strong % Conv.: 60%
[3]; oral, 200 mg/kg eq. 3-APS
  strychnine-induced convulsions and death: preserved all the animals
[3]; [11]
  Strychnine % Death rate: 0%
  Strychnine Strong % Conv.: 0%
Auricular electroshock; dose 200 (unit not given)
  death rate: 4/10
Auricular electroshock; dose 400 (unit not given)
  death rate: 5/10
[4]; oral, 100 mg/kg eq. 3-APS
  cardiazole response: did not change
[4]; [9]
  Cardiazol % Death rate: 90%
  Cardiazol Strong % Conv.: 90%
[4]; [10]
  latency time of cardiazole-induced first convulsion: increased
[4]; [11]
  Cardiazol % Death rate: 40%
  Cardiazol Strong % Conv.: 80%
Male albino Swiss mice
  tolerability: well tolerated
[6]; RAT, 100 mg/kg eq. 3 APS
  Cardiazol % Death rate: 60%
  Cardiazol Strong % Conv.: 60%
[6]; Wistar rats, dose equimolar to 100 mg 3-APS
  death rate reduction: 30%
[6]; Wistar rats, dose equimolar to 100 mg 3-APS, versus control
  first convulsion latency time: significant increase

## NS(=O)(=O)CCCN=C(c1ccccc1)c1ccccc1O [ST 512, 3-[(a-phenyl)-2-hydroxybenzylidene] amino propanesulfonamide]
[1]; [13]
  Picrotoxin % Death rate: 40%
  Picrotoxin Strong % Conv.: 100%
[1]; [14]
  Picrotoxin % Death rate: 50%
  Picrotoxin Strong % Conv.: 100%
[2]; [13]
  Bicuculline % Death rate: 100%
  Bicuculline Strong % Conv.: 90%
[2]; [14]
  Bicuculline % Death rate: 100%
  Bicuculline Strong % Conv.: 100%
[3]; [13]
  Strychnine % Death rate: 80%
  Strychnine Strong % Conv.: 90%
[3]; [14]
  Strychnine % Death rate: 90%
  Strychnine Strong % Conv.: 80%
Auricular electroshock; dose 200 (unit not given)
  death rate: 3/10
Auricular electroshock; dose 400 (unit not given)
  death rate: 4/10
[4]; [13]
  Cardiazol % Death rate: 50%
  Cardiazol Strong % Conv.: 100%
[4]; [14]
  Cardiazol % Death rate: 60%
  Cardiazol Strong % Conv.: 100%
[4]; oral, dose equimolar to 100 mg/10ml/kg of 3-APS, mice
  reduction of cardiazol-induced death rate: 20%
[4]; oral, dose equimolar to 200 mg/10ml/kg of 3-APS, mice
  reduction of cardiazol-induced death rate: 10%
Male albino Swiss mice
  tolerability: well tolerated
